The format of data set [1] is physicochemical. To be noted: pH 7.4. How it is done:
Given promising data obtained with MK007 in our preclinical mouse model, we performed preliminary in vitro studies on human cell lines. Competition binding studies (IC50) were performed using Jurkat cells (4 × 10^5 cells/sample) and [^125I]FC131 as radioligand. […] To determine the log P of MK007, the corresponding non-iodinated precursor was radioiodinated using the Iodogen method, and the octanol/PBS partition coefficient of [^125I]MK007 was determined using a modified shake-flask-method.

The test system of data set [2] is dysplastic lesions at the squamocolumnar junction of L2-IL1B mice. The data set is classed as in vivo, mouse. How it is done: Five 12-to-16-month-old IL1B mice were intravenously injected into the tail vein with 60 nmol of MK007 diluted in 0.9% NaCl (tot. vol. 150 µL; 400 nmol/mL) and sacrificed 4 h post injection (p.i.) by isoflurane overdosage. One non-injected 12-month-old IL1B mouse served as negative control. The whole stomach and esophagus were then excised and imaged using a homemade ex vivo wide-field fluorescence imaging system. Briefly, the fluorescence images were acquired at different time exposure (0.2, 0.5, 1 and 2 s), using a 670 nm diode laser (B&W tek, Newark, DE, USA) and appropriate bandpass filter (780/10). A back illuminated EM-CCD camera (iXon DU888, Andor, Belfast, Northern Ireland, UK) was then used to capture the signal. The target-to-background ratio (TBR) of the stomach was performed by dividing the fluorescence signal in the squamocolumnar junction (SCJ) area (target lesion) with the adjacent normal gastric glandular tissue (background area) using ImageJ/Fiji software. In the organs, the signal quantification was performed by calculating the corrected total cell fluorescence/CTCF = integrated density – [(area * AVERAGE (mean background)]. For CTCF, three regions of interest (ROIs) without any tissue were used as background.

The subject of data set [3] is dysplastic lesions of L2-IL1B mice. Briefly: Fluorescence molecular endoscopy. The data set is classed as in vivo. To be noted: L2-IL1B mice 12-14 months, 60 nmol i.v., 4 h p.i.; lesion vs normal surrounding esophageal tissue; mean ± SEM, 3 mice, 2-5 lesions per mouse. How it is done:
Three L2-IL1B mice (12–14 months old) were used for fluorescence molecular endoscopy before ex vivo imaging. Endoscopy was performed after sacrificing the mice at 4 h p.i. of MK007 using a homemade system previously developed by our group and optimized for small animal imaging. Briefly, the endoscopy system consisted of a flexible fiberscope (Micrendo-Fiberskop, SCHÖLLY FIBER OPTIC GMBH, Denzlingen, Germany) where both white light (provided by a 250-W halogen lamp, KL-2500 LCD, Schott AG, Mainz, Germany) and fluorescence (fiber coupled continuous wave (CW) laser diode emitting at 670 nm, SLD1332V, Thorlabs, Newton, NJ, USA) are coupled, allowing simultaneous color and near-infrared (NIR) fluorescence endoscopy. Videos in color and fluorescence channel were recorded using a custom-made endoscopy software and stored in AVI file format. Two NaCl-injected IL1B mice (17 and 12 months old) were used as negative controls for the validation of the endoscopy system. […] For quantification of Sulfo-Cy5 signal, single frames or frame sequences showing dysplastic lesions were used and the fluorescence signal from the target lesion and the background were quantified with ImageJ by handmade ROIs. […] The TBR was then calculated by dividing the mean fluorescence intensity from the lesion by the one from the background region.

The structures appear in SMILES notation. Square brackets hold non-standard residues; d marks the D form. Side chains are listed from the residue outwards. Peptide text beside a SMILES is read from it. * marks the point of attachment. X1 = C[N+]1=C(C=CC=CC=C2N(CCCCCC(=O)*)c3ccc(S(=O)(=O)O)cc3C2(C)C)C(C)(C)c2cc(S(=O)(=O)[O-])ccc21; dTyr(3-I) = N[C@H](Cc1ccc(O)c(I)c1)C(=O)O; 2Nal = N[C@@H](Cc1ccc2ccccc2c1)C(=O)O; dNMeOrn = CN[C@H](CCCN)C(=O)O; 4Abz = Nc1ccc(C(=O)O)cc1; dDap = NC[C@@H](N)C(=O)O A value given as a limit tells only on which side of the number the result lay.

As for `C[C@@H](NC(=O)[C@@H](CCCNC(=N)N)NC(=O)[C@@H](CN)NC(=O)CCCCCN1C(=CC=CC=CC2=[N+](C)c3ccc(S(=O)(=O)[O-])cc3C2(C)C)C(C)(C)c2cc(S(=O)(=O)O)ccc21)C(=O)Nc1ccc(C(=O)NCCC[C@@H]2C(=O)N[C@@H](CCCNC(=N)N)C(=O)N[C@@H](Cc3ccc4ccccc4c3)C(=O)NCC(=O)N[C@H](Cc3ccc(O)c(I)c3)C(=O)N2C)cc1` [MK007] (cyclo([dTyr(3-I)][dNMeOrn]([4Abz-dA-dR-dDap-X1])R[2Nal]G)), the “log P” value in data set [1] is given as “− 1.83 ± 0.02”. In data set [2] (L2-IL1B mice 12-16 months, 60 nmol i.v., 4 h p.i., SCJ vs adjacent normal gastric glandular tissue, mean ± SEM, n = 5), the “Target-to-background ratio (TBR), ex vivo wide-field imaging” value was determined as 2.45 ± 0.24. Further, the “mean target-to-background ratio in dysplastic lesions (ex vivo imaging and endoscopy)” value in data set [2] (L2-IL1B mice, 4 h after injection, abstract statement covering ex vivo imaging and endoscopy) is listed as over 2. Moreover, the “Target-to-background ratio (TBR), fluorescence endoscopy” value in data set [3] was determined as 2.13 ± 0.17.

The values above are taken from article PMC8748556, “CXCR4 peptide-based fluorescence endoscopy in a mouse model of Barrett’s esophagus” (EJNMMI Research, 2022).
